Measured values reported in publication PMC10636171 (Cell Death & Disease, 2023).

What was measured:
[1] = tested on: MHCC97H xenograft tumor; assay: MHCC97H xenograft tumor model; assay type: in vivo, BALB/c nude mice; conditions: ig, calculated through tumor weight
Protocol: Male BALB/c nude mice (5-week old, 18–20 g) were purchased from Beijing Vital River Laboratory Animal Technology (Beijing Vital River LaboratoryAnimal Technology Co., Ltd., Beijing,China) and allowed to acclimate for 1 week, maintained at constant room temperature and fed a standard rodent chow and water. 1 × 10^7 cells/mL cancer cells grown in logarithmic phase were harvested and resuspended in FBS-free 1640 medium. Then, 100 μL of the cell suspension was subcutaneously injected into the right flank of each mouse. When the tumour volume was reached about 600–800 mm^3, it was removed, minced into small pieces of equal volume (2 × 2 × 2 mm^3), and transplanted subcutaneously into the nude mice. When the tumour volume was reached about 200–400 mm^3, the xenograft tumour-bearing nude mice were randomly allocated to five groups (vehicle-treated, 1D228-2mgd-treated, 1D228-4mgd-treated […] Tepotinib-treated groups, with 6 or 8 mice (The number of mice were determined according to previous experience on xenograft tumor models) per group. Each group was dosed by intragastric administration (ig) for 7–14 days. Tumour volume and body weights were recorded every day after drug treatment. At the end of the observation period, the animals were euthanized by cervical dislocation and the tumour bulks were peeled off conformed to the Guide for the Care and Use of Laboratory Animals as published by the US National Institutes of Health (NIH Publication No. 85-23, revised 1996) and approved by the Institutional Ethics Review Board of Binzhou Medical University. There was no blinding was done during the animal experiment. No animals were excluded from the analysis.

[2] = tested on: ASPC1; assay: Transwell migration assay; assay type: cell-based, human
Protocol: (§1) Migration assay was performed using an 8 μm-pore Boyden chamber (24-well, #353097, Corning, NY, USA). Treated with 1, 5, and 10 nM 1D228 for 48 h. A total of 5 × 10^4 cells were seeded in serum-free medium in the top chamber and allowed to migrate for 48 h toward the bottom chamber containing 10% fetal bovine serum medium. Cells were fixed and permeabilized with cold 70% ethanol and methanol and stained with 0.4% crystal violet. The average number of migrating cells was evaluated from at least four independent microscope fields.

[3] = tested on: MHCC97H; assay: Transwell migration assay; assay type: cell-based, human; conditions: transwell, 1, 5 and 10 nM
Protocol: as §1

[4] = tested on: MKN45 xenograft tumor; assay: MKN45 xenograft: 1D228 alone versus Tepotinib and Larotrectinib; assay type: in vivo, nude mouse
Protocol: Male BALB/c nude mice (5-week old, 18–20 g) were purchased from Beijing Vital River Laboratory Animal Technology (Beijing Vital River LaboratoryAnimal Technology Co., Ltd., Beijing,China) and allowed to acclimate for 1 week, maintained at constant room temperature and fed a standard rodent chow and water. 1 × 10^7 cells/mL cancer cells grown in logarithmic phase were harvested and resuspended in FBS-free 1640 medium. Then, 100 μL of the cell suspension was subcutaneously injected into the right flank of each mouse. When the tumour volume was reached about 600–800 mm^3, it was removed, minced into small pieces of equal volume (2 × 2 × 2 mm^3), and transplanted subcutaneously into the nude mice. […]

[5] = molecular target: T1, FYN [a] (Homo sapiens, UniProt P06241); assay: HTRF/ADP-Glo kinase selectivity panel; assay type: biochemical; conditions: 500 nM, read-out: 1D228(%inhibition)@500nM
T1 construct: purchased Invitrogen (c-Met, TRKA, TRKB, TRKC)
T1 sequence (P06241 whole entry): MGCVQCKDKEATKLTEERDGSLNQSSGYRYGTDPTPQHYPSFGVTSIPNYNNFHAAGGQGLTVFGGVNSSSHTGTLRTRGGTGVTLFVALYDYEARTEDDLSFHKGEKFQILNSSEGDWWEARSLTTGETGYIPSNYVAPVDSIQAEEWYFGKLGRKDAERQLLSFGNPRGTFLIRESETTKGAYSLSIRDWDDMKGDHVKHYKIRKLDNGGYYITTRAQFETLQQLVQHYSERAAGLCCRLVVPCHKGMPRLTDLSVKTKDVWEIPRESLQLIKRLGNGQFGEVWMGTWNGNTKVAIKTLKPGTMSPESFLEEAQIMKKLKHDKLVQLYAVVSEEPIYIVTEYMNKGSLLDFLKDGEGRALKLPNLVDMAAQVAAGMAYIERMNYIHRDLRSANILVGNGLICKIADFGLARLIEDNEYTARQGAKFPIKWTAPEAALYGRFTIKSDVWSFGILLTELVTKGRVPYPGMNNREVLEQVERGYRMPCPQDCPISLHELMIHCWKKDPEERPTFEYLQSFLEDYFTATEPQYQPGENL
Protocol: (§2) The compound was serial diluted from 10 mM stock in DMSO, dilute the test compound to 0.1 mM (200 times the specified test concentration). 2 × ATP & Substrate solution and 2 × kinase & Metal solution were prepared using assay buffer; Transfer 25 nL compound to 384 assay plate by Echo 655; After centrifugation, add 2.5 μL 2 × kinase/metal ion solution 384 assay plate, and incubate at 25 °C for 10 min. 2 × XL665 & Antibody solution were prepared with detection buffer; 5 μL of Kinase Detection Reagent was added to the well, and incubated for 60 min at 25 °C; The fluorescence signals of 620 nm (Cryptate) and 665 nm (XL665) were read by microtiter plate reader; […]

[6] = molecular target: T2, RET (Homo sapiens, UniProt P07949); assay: HTRF/ADP-Glo kinase selectivity panel; assay type: biochemical; conditions: 500 nM, read-out: 1D228(%inhibition)@500nM
T2 construct: purchased Invitrogen (c-Met, TRKA, TRKB, TRKC)
Protocol: as §2

[7] = molecular target: T3, EPHB4 (Homo sapiens, UniProt P54760); assay: HTRF/ADP-Glo kinase selectivity panel; assay type: biochemical; conditions: 500 nM, read-out: 1D228(%inhibition)@500nM
T3 construct: purchased Invitrogen (c-Met, TRKA, TRKB, TRKC)
Protocol: as §2

[8] = molecular target: T4, IGF1R (Homo sapiens, UniProt P08069); assay: HTRF/ADP-Glo kinase selectivity panel; assay type: biochemical; conditions: 500 nM, read-out: 1D228(%inhibition)@500nM
T4 construct: purchased Invitrogen (c-Met, TRKA, TRKB, TRKC)
Protocol: as §2

[9] = molecular target: T5, PDGFRβ (Homo sapiens, UniProt P09619); assay: HTRF/ADP-Glo kinase selectivity panel; assay type: biochemical; conditions: 500 nM, read-out: 1D228(%inhibition)@500nM
T5 construct: purchased Invitrogen (c-Met, TRKA, TRKB, TRKC)
Protocol: as §2

[10] = molecular target: T6, TRKA (Homo sapiens, UniProt P04629); assay: HTRF/ADP-Glo kinase selectivity panel; assay type: biochemical; conditions: 500 nM, read-out: 1D228(%inhibition)@500nM
T6 construct: purchased Invitrogen (c-Met, TRKA, TRKB, TRKC)
Protocol: as §2

[11] = molecular target: T7, SYK (Homo sapiens, UniProt P43405); assay: HTRF/ADP-Glo kinase selectivity panel; assay type: biochemical; conditions: 500 nM, read-out: 1D228(%inhibition)@500nM
T7 construct: purchased Invitrogen (c-Met, TRKA, TRKB, TRKC)
Protocol: as §2

[12] = molecular target: T8, EPHB3 (Homo sapiens, UniProt P54753); assay: HTRF/ADP-Glo kinase selectivity panel; assay type: biochemical; conditions: 500 nM, read-out: 1D228(%inhibition)@500nM
T8 construct: purchased Invitrogen (c-Met, TRKA, TRKB, TRKC)
Protocol: as §2

[13] = molecular target: T9, AXL (Homo sapiens, UniProt P30530); assay: HTRF/ADP-Glo kinase selectivity panel; assay type: biochemical; conditions: 500 nM, read-out: 1D228(%inhibition)@500nM
T9 construct: purchased Invitrogen (c-Met, TRKA, TRKB, TRKC)
T9 sequence (P30530 26-894): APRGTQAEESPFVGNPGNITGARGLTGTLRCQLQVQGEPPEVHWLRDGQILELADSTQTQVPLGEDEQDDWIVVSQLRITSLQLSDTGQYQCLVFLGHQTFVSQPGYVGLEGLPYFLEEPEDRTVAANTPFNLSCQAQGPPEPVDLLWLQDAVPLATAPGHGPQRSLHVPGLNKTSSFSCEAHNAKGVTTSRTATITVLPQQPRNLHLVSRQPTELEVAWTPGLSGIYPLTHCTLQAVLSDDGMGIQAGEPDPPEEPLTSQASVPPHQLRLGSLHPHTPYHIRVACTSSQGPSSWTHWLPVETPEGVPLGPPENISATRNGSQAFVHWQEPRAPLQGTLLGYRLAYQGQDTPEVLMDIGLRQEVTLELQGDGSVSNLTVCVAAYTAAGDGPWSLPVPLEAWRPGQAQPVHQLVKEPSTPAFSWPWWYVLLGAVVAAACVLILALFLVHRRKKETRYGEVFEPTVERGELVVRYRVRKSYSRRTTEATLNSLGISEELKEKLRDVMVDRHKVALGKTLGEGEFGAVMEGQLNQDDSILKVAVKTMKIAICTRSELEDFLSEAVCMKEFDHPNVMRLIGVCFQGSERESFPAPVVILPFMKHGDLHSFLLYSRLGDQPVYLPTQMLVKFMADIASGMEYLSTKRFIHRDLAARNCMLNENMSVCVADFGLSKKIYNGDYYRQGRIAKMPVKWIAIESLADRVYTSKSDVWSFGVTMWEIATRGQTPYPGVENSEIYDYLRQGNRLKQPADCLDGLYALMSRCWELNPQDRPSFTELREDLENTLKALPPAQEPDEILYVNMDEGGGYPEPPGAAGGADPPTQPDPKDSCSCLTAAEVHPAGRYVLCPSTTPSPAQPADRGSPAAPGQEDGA
Protocol: as §2

[14] = molecular target: T10, EPHA1 (Homo sapiens, UniProt P21709); assay: HTRF/ADP-Glo kinase selectivity panel; assay type: biochemical; conditions: 500 nM, read-out: 1D228(%inhibition)@500nM
T10 construct: purchased Invitrogen (c-Met, TRKA, TRKB, TRKC)
Protocol: as §2

[15] = molecular target: T11, JAK3 (Homo sapiens, UniProt P52333); assay: HTRF/ADP-Glo kinase selectivity panel; assay type: biochemical; conditions: 500 nM, read-out: 1D228(%inhibition)@500nM
T11 construct: purchased Invitrogen (c-Met, TRKA, TRKB, TRKC)
Protocol: as §2

[16] = molecular target: T12, CSK (Homo sapiens, UniProt P41240); assay: HTRF/ADP-Glo kinase selectivity panel; assay type: biochemical; conditions: 500 nM, read-out: 1D228(%inhibition)@500nM
T12 construct: purchased Invitrogen (c-Met, TRKA, TRKB, TRKC)
Protocol: as §2

[17] = molecular target: T13, EPHB2 (Homo sapiens, UniProt P29323); assay: HTRF/ADP-Glo kinase selectivity panel; assay type: biochemical; conditions: 500 nM, read-out: 1D228(%inhibition)@500nM
T13 construct: purchased Invitrogen (c-Met, TRKA, TRKB, TRKC)
Protocol: as §2

[18] = molecular target: T14, RON (Homo sapiens, UniProt Q04912); assay: HTRF/ADP-Glo kinase selectivity panel; assay type: biochemical; conditions: 500 nM, read-out: 1D228(%inhibition)@500nM
T14 construct: purchased Invitrogen (c-Met, TRKA, TRKB, TRKC)
T14 sequence (Q04912 25-1400): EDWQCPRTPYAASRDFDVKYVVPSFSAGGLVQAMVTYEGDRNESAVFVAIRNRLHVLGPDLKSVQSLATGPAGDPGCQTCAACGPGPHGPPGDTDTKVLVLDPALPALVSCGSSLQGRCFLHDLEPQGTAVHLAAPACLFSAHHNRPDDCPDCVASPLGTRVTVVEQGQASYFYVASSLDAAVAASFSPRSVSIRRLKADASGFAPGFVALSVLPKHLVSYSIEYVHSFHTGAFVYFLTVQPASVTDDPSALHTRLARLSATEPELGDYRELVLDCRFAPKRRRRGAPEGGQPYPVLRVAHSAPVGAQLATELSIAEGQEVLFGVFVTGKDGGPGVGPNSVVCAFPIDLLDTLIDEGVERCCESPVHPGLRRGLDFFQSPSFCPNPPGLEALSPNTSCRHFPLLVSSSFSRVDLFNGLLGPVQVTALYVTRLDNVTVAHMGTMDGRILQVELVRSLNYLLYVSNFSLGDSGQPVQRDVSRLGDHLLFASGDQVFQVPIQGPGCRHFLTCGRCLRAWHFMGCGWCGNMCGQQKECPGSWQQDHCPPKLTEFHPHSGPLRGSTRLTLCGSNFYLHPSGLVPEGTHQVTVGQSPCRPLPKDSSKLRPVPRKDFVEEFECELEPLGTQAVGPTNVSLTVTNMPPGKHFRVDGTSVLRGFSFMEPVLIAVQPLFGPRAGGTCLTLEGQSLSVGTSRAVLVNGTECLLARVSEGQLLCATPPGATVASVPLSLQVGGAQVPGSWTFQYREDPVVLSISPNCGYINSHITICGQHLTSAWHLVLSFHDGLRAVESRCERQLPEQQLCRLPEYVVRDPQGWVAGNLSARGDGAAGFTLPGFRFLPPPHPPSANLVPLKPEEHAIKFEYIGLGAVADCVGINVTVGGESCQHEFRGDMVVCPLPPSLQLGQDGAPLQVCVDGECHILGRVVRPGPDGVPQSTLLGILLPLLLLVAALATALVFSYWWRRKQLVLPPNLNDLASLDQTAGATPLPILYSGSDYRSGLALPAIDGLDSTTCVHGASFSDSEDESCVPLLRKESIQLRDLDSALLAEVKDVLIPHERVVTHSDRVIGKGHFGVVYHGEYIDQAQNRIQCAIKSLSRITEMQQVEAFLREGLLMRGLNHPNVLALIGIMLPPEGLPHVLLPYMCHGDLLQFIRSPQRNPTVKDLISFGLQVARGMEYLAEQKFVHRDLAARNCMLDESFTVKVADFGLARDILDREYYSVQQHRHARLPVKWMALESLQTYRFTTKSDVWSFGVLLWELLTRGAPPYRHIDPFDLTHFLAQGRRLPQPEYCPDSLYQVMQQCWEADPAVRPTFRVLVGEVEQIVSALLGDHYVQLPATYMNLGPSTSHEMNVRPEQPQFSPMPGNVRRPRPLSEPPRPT
Protocol: as §2

[19] = molecular target: T15, CSF1R (Homo sapiens, UniProt P07333); assay: HTRF/ADP-Glo kinase selectivity panel; assay type: biochemical; conditions: 500 nM, read-out: 1D228(%inhibition)@500nM
T15 construct: purchased Invitrogen (c-Met, TRKA, TRKB, TRKC)
T15 sequence (P07333 20-972): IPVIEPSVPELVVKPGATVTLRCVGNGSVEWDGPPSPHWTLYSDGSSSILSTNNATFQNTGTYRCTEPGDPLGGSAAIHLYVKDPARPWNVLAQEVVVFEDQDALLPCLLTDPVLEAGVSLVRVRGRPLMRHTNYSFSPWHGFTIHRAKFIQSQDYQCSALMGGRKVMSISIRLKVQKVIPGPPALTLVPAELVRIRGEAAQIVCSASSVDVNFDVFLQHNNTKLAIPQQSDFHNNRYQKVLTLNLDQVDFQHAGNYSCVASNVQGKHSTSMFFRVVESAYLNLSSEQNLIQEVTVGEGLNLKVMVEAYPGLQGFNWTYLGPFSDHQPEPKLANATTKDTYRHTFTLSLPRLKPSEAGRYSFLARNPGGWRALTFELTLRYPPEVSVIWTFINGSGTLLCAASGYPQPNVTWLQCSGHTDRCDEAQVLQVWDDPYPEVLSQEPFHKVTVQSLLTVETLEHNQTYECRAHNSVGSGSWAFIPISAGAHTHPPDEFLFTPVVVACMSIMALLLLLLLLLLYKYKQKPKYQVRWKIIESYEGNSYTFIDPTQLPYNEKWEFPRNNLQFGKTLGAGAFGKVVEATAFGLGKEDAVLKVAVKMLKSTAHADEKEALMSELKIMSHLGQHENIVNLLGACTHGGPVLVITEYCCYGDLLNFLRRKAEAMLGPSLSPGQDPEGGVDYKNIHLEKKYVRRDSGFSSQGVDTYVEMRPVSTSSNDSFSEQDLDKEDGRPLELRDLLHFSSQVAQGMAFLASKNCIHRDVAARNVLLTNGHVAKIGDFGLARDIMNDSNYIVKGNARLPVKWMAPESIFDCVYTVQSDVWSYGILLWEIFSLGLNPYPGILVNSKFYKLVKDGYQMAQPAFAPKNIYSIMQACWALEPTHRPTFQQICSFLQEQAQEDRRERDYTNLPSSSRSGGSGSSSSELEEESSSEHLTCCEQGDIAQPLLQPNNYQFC
Protocol: as §2

[20] = molecular target: T16, TIE2 (Homo sapiens, UniProt Q02763); assay: HTRF/ADP-Glo kinase selectivity panel; assay type: biochemical; conditions: 500 nM, read-out: 1D228(%inhibition)@500nM
T16 construct: purchased Invitrogen (c-Met, TRKA, TRKB, TRKC)
Protocol: as §2

[21] = molecular target: T17, IRR (Homo sapiens, UniProt P14616); assay: HTRF/ADP-Glo kinase selectivity panel; assay type: biochemical; conditions: 500 nM, read-out: 1D228(%inhibition)@500nM
T17 construct: purchased Invitrogen (c-Met, TRKA, TRKB, TRKC)
T17 sequence (P14616 27-1297): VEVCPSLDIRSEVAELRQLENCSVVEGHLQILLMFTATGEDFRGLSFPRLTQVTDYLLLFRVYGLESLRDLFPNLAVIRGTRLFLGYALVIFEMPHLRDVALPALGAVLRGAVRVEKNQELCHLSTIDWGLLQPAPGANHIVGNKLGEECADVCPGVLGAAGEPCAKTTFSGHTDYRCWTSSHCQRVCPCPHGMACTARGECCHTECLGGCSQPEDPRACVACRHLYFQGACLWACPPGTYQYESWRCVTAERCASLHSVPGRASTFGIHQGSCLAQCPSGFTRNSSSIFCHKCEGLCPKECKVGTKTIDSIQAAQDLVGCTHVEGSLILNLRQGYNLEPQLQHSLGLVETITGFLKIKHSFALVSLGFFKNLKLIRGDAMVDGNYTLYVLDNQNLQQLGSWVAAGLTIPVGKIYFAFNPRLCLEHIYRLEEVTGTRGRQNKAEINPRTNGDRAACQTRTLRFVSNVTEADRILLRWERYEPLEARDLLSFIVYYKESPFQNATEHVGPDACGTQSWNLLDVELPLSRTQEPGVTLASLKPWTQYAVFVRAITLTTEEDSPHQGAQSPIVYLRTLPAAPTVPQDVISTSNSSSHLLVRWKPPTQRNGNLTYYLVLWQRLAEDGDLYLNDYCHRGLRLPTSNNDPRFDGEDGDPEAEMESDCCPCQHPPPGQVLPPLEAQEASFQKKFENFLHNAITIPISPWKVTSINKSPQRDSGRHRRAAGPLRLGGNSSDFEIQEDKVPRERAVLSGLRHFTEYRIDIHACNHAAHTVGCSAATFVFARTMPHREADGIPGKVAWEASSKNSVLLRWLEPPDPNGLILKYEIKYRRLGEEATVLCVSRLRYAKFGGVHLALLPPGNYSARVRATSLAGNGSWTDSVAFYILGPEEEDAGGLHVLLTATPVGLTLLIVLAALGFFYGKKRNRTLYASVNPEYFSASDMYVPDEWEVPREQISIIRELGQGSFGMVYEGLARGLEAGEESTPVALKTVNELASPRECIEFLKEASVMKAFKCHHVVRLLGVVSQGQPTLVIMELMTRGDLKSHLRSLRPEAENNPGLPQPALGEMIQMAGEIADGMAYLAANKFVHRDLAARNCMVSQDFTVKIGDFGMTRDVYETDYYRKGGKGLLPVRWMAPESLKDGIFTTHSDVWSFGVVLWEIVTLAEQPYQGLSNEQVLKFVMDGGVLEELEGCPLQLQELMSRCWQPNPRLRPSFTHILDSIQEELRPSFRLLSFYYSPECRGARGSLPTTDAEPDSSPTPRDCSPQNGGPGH
Protocol: as §2

[22] = molecular target: T18, MER (Homo sapiens, UniProt Q12866); assay: HTRF/ADP-Glo kinase selectivity panel; assay type: biochemical; conditions: 500 nM, read-out: 1D228(%inhibition)@500nM
T18 construct: purchased Invitrogen (c-Met, TRKA, TRKB, TRKC)
Protocol: as §2

[23] = molecular target: T19, ROS1 (Homo sapiens, UniProt P08922); assay: HTRF/ADP-Glo kinase selectivity panel; assay type: biochemical; conditions: 500 nM, read-out: 1D228(%inhibition)@500nM
T19 construct: purchased Invitrogen (c-Met, TRKA, TRKB, TRKC)
Protocol: as §2

[24] = molecular target: T20, TYK2 (Homo sapiens, UniProt P29597); assay: HTRF/ADP-Glo kinase selectivity panel; assay type: biochemical; conditions: 500 nM, read-out: 1D228(%inhibition)@500nM
T20 construct: purchased Invitrogen (c-Met, TRKA, TRKB, TRKC)
Protocol: as §2

[25] = molecular target: T21, ZAP70 (Homo sapiens, UniProt P43403); assay: HTRF/ADP-Glo kinase selectivity panel; assay type: biochemical; conditions: 500 nM, read-out: 1D228(%inhibition)@500nM
T21 construct: purchased Invitrogen (c-Met, TRKA, TRKB, TRKC)
Protocol: as §2

[26] = molecular target: T22, BMX (Homo sapiens, UniProt P51813); assay: HTRF/ADP-Glo kinase selectivity panel; assay type: biochemical; conditions: 500 nM, read-out: 1D228(%inhibition)@500nM
T22 construct: purchased Invitrogen (c-Met, TRKA, TRKB, TRKC)
Protocol: as §2

[27] = molecular target: T23, FRK (Homo sapiens, UniProt P42685); assay: HTRF/ADP-Glo kinase selectivity panel; assay type: biochemical; conditions: 500 nM, read-out: 1D228(%inhibition)@500nM
T23 construct: purchased Invitrogen (c-Met, TRKA, TRKB, TRKC)
Protocol: as §2

[2H][C@@](C)(c1cccc(-c2ncc(OCC3CCN(C)CC3)cn2)c1)n1nc(-c2cccc(C#N)c2)ccc1=O [1D228]
Tumor growth inhibition (TGI) ([1]; 2 mg/kg): 81.2% | Tumor growth inhibition (TGI) ([1]; 4 mg/kg): 93.4% | Tumor growth inhibition (TGI) ([1]; 8 mg/kg): 98.2% | Cells blocked from migrating [2]: 50–80% | Cells blocked from migrating [3]: 50–80% | Tumor volume reduction ([4]; MKN45 gastric cancer nude mouse transplant tumor): ~90% | Body weight of tumor bearing mice ([4]; MKN45 xenograft): the opposite was true | inhibition at 0.5 µM [5]: -7.78% | inhibition at 0.5 µM [6]: 12.2% | inhibition at 0.5 µM [7]: 5.08% | inhibition at 0.5 µM [8]: 5.26% | inhibition at 0.5 µM [9]: -3.95% | inhibition at 0.5 µM [10]: 93.6% | inhibition at 0.5 µM [11]: 2.47% | inhibition at 0.5 µM [12]: 5.68% | inhibition at 0.5 µM [13]: 89.2% | inhibition at 0.5 µM [14]: -1.53% | inhibition at 0.5 µM [15]: 0.193% | inhibition at 0.5 µM [16]: -3.07% | inhibition at 0.5 µM [17]: -3.54% | inhibition at 0.5 µM [18]: 1.38% | inhibition at 0.5 µM [19]: 3.21% | inhibition at 0.5 µM [20]: -2.64% | inhibition at 0.5 µM [21]: 3.88% | inhibition at 0.5 µM [22]: 84.1% | inhibition at 0.5 µM [23]: 7.05% | inhibition at 0.5 µM [24]: 4.51% | inhibition at 0.5 µM [25]: -0.66% | inhibition at 0.5 µM [26]: 5.12% | inhibition at 0.5 µM [27]: 11.3%
